Several values for one entry are separate records, joined by “and”; a condition that tells them apart may be missing. Identical values can stand only once. Inconclusive results and toxic doses are left out.
System: CD2F1 mice, L1210 leukemia ip, survival T/C
Experiment: NCI In Vivo Anticancer Drug Screen. Data for tumor model L1210 Leukemia (intraperitoneal) in CD2F1 (CDF1) mice
Settings: higher = longer survival
Summary of the method: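 Compound-dosed mice with transplantable tumor versus matched vehicle controls; endpoint ratio T/C reported.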

[1] = endpoint: mean survival time, dose: 100.0 mg/kg/injection, schedule: Q04DX002 (ip), vehicle: saline with Tween-80
[2] = endpoint: mean survival time, dose: 200.0 mg/kg/injection, schedule: Q04DX002 (ip), vehicle: saline with Tween-80
[3] = endpoint: mean survival time, dose: 400.0 mg/kg/injection, schedule: Q04DX002 (ip), vehicle: saline with Tween-80
[4] = endpoint: mean survival time, dose: 100.0 mg/kg/injection, schedule: Q04DX003 (ip), vehicle: saline with Tween-80
[5] = endpoint: mean survival time, dose: 200.0 mg/kg/injection, schedule: Q04DX003 (ip), vehicle: saline with Tween-80
[6] = endpoint: mean survival time, dose: 400.0 mg/kg/injection, schedule: Q04DX003 (ip), vehicle: saline with Tween-80
[7] = endpoint: mean survival time, dose: 25.0 mg/kg/injection, schedule: Q01DX009 (ip), vehicle: saline
[8] = endpoint: mean survival time, dose: 50.0 mg/kg/injection, schedule: Q01DX009 (ip), vehicle: saline
[9] = endpoint: mean survival time, dose: 100.0 mg/kg/injection, schedule: Q01DX009 (ip), vehicle: saline
[10] = endpoint: mean survival time, dose: 200.0 mg/kg/injection, schedule: Q01DX009 (ip), vehicle: saline
[11] = endpoint: mean survival time, dose: 100.0 mg/kg/injection, schedule: Q01DX009 (ip), vehicle: saline with Tween-80
[12] = endpoint: mean survival time, dose: 200.0 mg/kg/injection, schedule: Q01DX009 (ip), vehicle: saline with Tween-80
[13] = endpoint: mean survival time, dose: 400.0 mg/kg/injection, schedule: Q01DX009 (ip), vehicle: saline with Tween-80
[14] = endpoint: mean survival time, dose: 12.5 mg/kg/injection, schedule: Q01DX009 (ip), vehicle: saline
[15] = endpoint: mean survival time, dose: 400.0 mg/kg/injection, schedule: Q04DX003 (ip), vehicle: saline
[16] = endpoint: mean survival time, dose: 100.0 mg/kg/injection, schedule: Q01DX001 (ip), vehicle: saline with Tween-80
[17] = endpoint: mean survival time, dose: 200.0 mg/kg/injection, schedule: Q01DX001 (ip), vehicle: saline with Tween-80
[18] = endpoint: mean survival time, dose: 400.0 mg/kg/injection, schedule: Q01DX001 (ip), vehicle: saline with Tween-80
[19] = endpoint: mean survival time, dose: 12.5 mg/kg/injection, schedule: Q01DX009 (ip), vehicle: saline with Tween-80
[20] = endpoint: mean survival time, dose: 25.0 mg/kg/injection, schedule: Q01DX009 (ip), vehicle: saline with Tween-80
[21] = endpoint: mean survival time, dose: 50.0 mg/kg/injection, schedule: Q01DX009 (ip), vehicle: saline with Tween-80

CCOC(=O)COC(=O)CN1C(=O)c2ccccc2C1=O
T/C (endpoint: mean survival time, dose: 50.0 mg/kg/injection, schedule: Q01DX001 (ip), vehicle: water): 93 % of control | T/C (endpoint: mean survival time, dose: 100.0 mg/kg/injection, schedule: Q01DX001 (ip), vehicle: water): 98 % of control | T/C (endpoint: mean survival time, dose: 200.0 mg/kg/injection, schedule: Q01DX001 (ip), vehicle: water): 104 % of control | T/C (endpoint: mean survival time, dose: 400.0 mg/kg/injection, schedule: Q01DX001 (ip), vehicle: water): 94 % of control

O=[N+]([O-])c1ccc(S/C=C/c2ccccc2)cc1
T/C (endpoint: median survival time, dose: 25.0 mg/kg/injection, schedule: Q04DX002 (ip), vehicle: saline with Tween-80): 100 % of control | T/C (endpoint: median survival time, dose: 50.0 mg/kg/injection, schedule: Q04DX002 (ip), vehicle: saline with Tween-80): 110 % of control | T/C (endpoint: median survival time, dose: 100.0 mg/kg/injection, schedule: Q04DX002 (ip), vehicle: saline with Tween-80): 100 % of control | T/C (endpoint: median survival time, dose: 200.0 mg/kg/injection, schedule: Q04DX002 (ip), vehicle: saline with Tween-80): 100 % of control

COc1ccc(C2OC(=O)c3cccnc32)cc1OC (stereo unspecified)
T/C (endpoint: mean survival time, dose: 12.5 mg/kg/injection, schedule: Q01DX009 (ip), vehicle: other): 90 % of control | T/C (endpoint: mean survival time, dose: 50.0 mg/kg/injection, schedule: Q01DX009 (ip), vehicle: other): 87 % of control | T/C (endpoint: mean survival time, dose: 200.0 mg/kg/injection, schedule: Q01DX009 (ip), vehicle: other): 88 % of control

O=C1c2ccccc2C(=O)N1C(=S)N1C(=O)c2ccccc2C1=O
T/C [1]: 96 % of control | T/C [2]: 92 % of control | T/C [3]: 92 % of control

C1OC2OC3OCOC3C2O1 (stereo unspecified)
T/C [4]: 101 % of control | T/C [5]: 95 % of control | T/C [6]: 95 % of control

CCN(CC)CCOC(=O)Cc1cccc2c(=O)cc(-c3ccccc3)oc12
T/C (endpoint: mean survival time, dose: 12.5 mg/kg/injection, schedule: Q01DX009 (ip), vehicle: Klucel (hydroxypropylcellulose) (HPC)): 95 % of control | T/C (endpoint: mean survival time, dose: 25.0 mg/kg/injection, schedule: Q01DX009 (ip), vehicle: Klucel (hydroxypropylcellulose) (HPC)): 95 % of control | T/C [7]: 95 % of control | T/C (endpoint: mean survival time, dose: 50.0 mg/kg/injection, schedule: Q01DX009 (ip), vehicle: Klucel (hydroxypropylcellulose) (HPC)): 92 % of control | T/C [8]: 111 % of control | T/C (endpoint: mean survival time, dose: 100.0 mg/kg/injection, schedule: Q01DX009 (ip), vehicle: Klucel (hydroxypropylcellulose) (HPC)): 89 % of control | T/C [9]: 96 % of control | T/C (endpoint: mean survival time, dose: 200.0 mg/kg/injection, schedule: Q01DX009 (ip), vehicle: Klucel (hydroxypropylcellulose) (HPC)): 87 % of control | T/C [10]: 111 % of control | T/C (endpoint: mean survival time, dose: 400.0 mg/kg/injection, schedule: Q01DX009 (ip), vehicle: Klucel (hydroxypropylcellulose) (HPC)): 93 % of control

O=C(/C=C(\NC1CCCCC1)C(=O)c1ccccc1)c1ccccc1
T/C [11]: 87 % of control | T/C [12]: 98 % of control | T/C [5]: 86 % of control | T/C [13]: 97 % of control | T/C [6]: 86 % of control

O=P(N1CCOCC1)(N1CC1)N1CC1
T/C (endpoint: mean survival time, dose: 1.56 mg/kg/injection, schedule: Q01DX009 (ip), vehicle: saline): 103 % of control | T/C (endpoint: mean survival time, dose: 3.12 mg/kg/injection, schedule: Q01DX009 (ip), vehicle: saline): 111 % of control | T/C [14]: 180 % of control

CCOC(=O)C(=NCc1ccc2c(c1)OCO2)NO
T/C [4]: 96 % of control | T/C [5]: 100 % of control | T/C [6]: 101 % of control

N#Cc1c(F)c(F)c(NN)c(F)c1F
T/C [4]: 93 % of control | T/C [5]: 89 % of control

Cc1c(Cl)cccc1NC(=O)/C=C/c1ccccc1
T/C [1]: 94 % of control | T/C [2]: 102 % of control | T/C [3]: 94 % of control

COc1ccc(OC)c(C2N(Cc3ccccc3N(C)C)CCCN2Cc2ccccc2N(C)C)c1
T/C [4]: 92 % of control | T/C [5]: 88 % of control

CN(C)c1n[nH]c(N)n1
T/C (endpoint: mean survival time, dose: 76.0 mg/kg/injection, schedule: Q04DX003 (ip), vehicle: saline): 97 % of control | T/C (endpoint: mean survival time, dose: 115.0 mg/kg/injection, schedule: Q04DX003 (ip), vehicle: saline): 101 % of control | T/C (endpoint: mean survival time, dose: 174.0 mg/kg/injection, schedule: Q04DX003 (ip), vehicle: saline): 104 % of control | T/C (endpoint: mean survival time, dose: 264.0 mg/kg/injection, schedule: Q04DX003 (ip), vehicle: saline): 103 % of control | T/C [15]: 105 % of control

CC1(C(=O)Sc2ccccc2)OC1(C)c1ccccc1 (stereo unspecified)
T/C (endpoint: mean survival time, dose: 100.0 mg/kg/injection, schedule: Q01DX001 (ip), vehicle: Klucel (hydroxypropylcellulose) (HPC)): 97 % of control | T/C (endpoint: mean survival time, dose: 200.0 mg/kg/injection, schedule: Q01DX001 (ip), vehicle: Klucel (hydroxypropylcellulose) (HPC)): 108 % of control | T/C (endpoint: mean survival time, dose: 400.0 mg/kg/injection, schedule: Q01DX001 (ip), vehicle: Klucel (hydroxypropylcellulose) (HPC)): 97 % of control

CC(=O)c1cccc(C(=O)O)c1
T/C [16]: 103 % of control | T/C [17]: 101 % of control | T/C [18]: 103 % of control

CCCN1COC(OCC)C(C)(C)C1 (stereo unspecified)
T/C [19]: 112 % of control | T/C [14]: 91 % of control | T/C [20]: 100 % of control | T/C [7]: 100 % of control | T/C [21]: 107 % of control | T/C [8]: 103 % of control | T/C [11]: 114 % of control | T/C [9]: 97 % of control | T/C [12]: 106 % of control | T/C [10]: 109 % of control

CC(=O)C/C=C(\C)CCC=C(C)C
T/C (endpoint: mean survival time, dose: 100.0 mg/kg/injection, schedule: Q04DX003 (ip), vehicle: acetone): 91 % of control | T/C (endpoint: mean survival time, dose: 200.0 mg/kg/injection, schedule: Q04DX003 (ip), vehicle: acetone): 94 % of control | T/C (endpoint: mean survival time, dose: 400.0 mg/kg/injection, schedule: Q04DX003 (ip), vehicle: acetone): 98 % of control

O=C1CCCN1c1ccc([N+](=O)[O-])cc1
T/C (endpoint: mean survival time, dose: 12.5 mg/kg/injection, schedule: Q04DX002 (ip), vehicle: saline with Tween-80): 102 % of control | T/C (endpoint: mean survival time, dose: 25.0 mg/kg/injection, schedule: Q04DX002 (ip), vehicle: saline with Tween-80): 102 % of control | T/C (endpoint: mean survival time, dose: 50.0 mg/kg/injection, schedule: Q04DX002 (ip), vehicle: saline with Tween-80): 102 % of control | T/C [16]: 110 % of control | T/C [11]: 98 % of control | T/C [17]: 104 % of control | T/C [12]: 98 % of control | T/C [18]: 101 % of control | T/C [13]: 106 % of control

COc1ccc2c(c1)CCC1C2=CC2=NNC(=O)C2C1c1ccccc1 (stereo unspecified)
T/C [1]: 92 % of control | T/C [2]: 92 % of control | T/C [3]: 88 % of control

O=S(=O)(Nc1cc(Cl)c(NS(=O)(=O)c2ccccc2)cc1Cl)c1ccccc1
T/C [16]: 96 % of control | T/C [17]: 88 % of control | T/C [18]: 93 % of control

O=C(O)/C=C/C(=O)O
T/C [16]: 93 % of control and 88 % of control | T/C [4]: 100 % of control | T/C [17]: 94 % of control | T/C [18]: 91 % of control

CN(C=O)c1ccc(C(=O)NC(CCC(=O)OCc2ccccc2)C(=O)OCc2ccccc2)cc1 (stereo unspecified)
T/C [11]: 94 % of control | T/C [4]: 105 % of control | T/C [12]: 89 % of control | T/C [5]: 92 % of control | T/C [13]: 89 % of control | T/C [6]: 89 % of control

O=C(Nc1ccccc1)c1ccc(S(=O)(=O)F)cc1
T/C [11]: 101 % of control | T/C [12]: 106 % of control | T/C [13]: 106 % of control

C=CCCCCCCCCCCC(=O)OC
T/C [11]: 106 % of control | T/C [4]: 93 % of control | T/C [12]: 106 % of control | T/C [5]: 94 % of control | T/C [13]: 101 % of control

CS(=O)(=O)OCCCOS(C)(=O)=O
T/C [19]: 107 % of control | T/C [20]: 116 % of control | T/C (endpoint: mean survival time, dose: 50.0 mg/kg/injection, schedule: Q01DX001 (ip), vehicle: saline): 96 % of control | T/C [21]: 116 % of control | T/C (endpoint: mean survival time, dose: 100.0 mg/kg/injection, schedule: Q01DX001 (ip), vehicle: saline): 100 % of control | T/C [11]: 105 % of control | T/C (endpoint: mean survival time, dose: 100.0 mg/kg/injection, schedule: Q04DX003 (ip), vehicle: saline): 105 % of control | T/C (endpoint: mean survival time, dose: 200.0 mg/kg/injection, schedule: Q01DX001 (ip), vehicle: saline): 102 % of control | T/C (endpoint: mean survival time, dose: 200.0 mg/kg/injection, schedule: Q04DX003 (ip), vehicle: saline): 106 % of control | T/C (endpoint: mean survival time, dose: 400.0 mg/kg/injection, schedule: Q01DX001 (ip), vehicle: saline): 100 % of control | T/C [15]: 110 % of control

CCOC(=O)CCN(CCC(=O)OCC)Cc1ccccc1
T/C [1]: 112 % of control | T/C [2]: 100 % of control | T/C [3]: 103 % of control
